How the values were obtained:
Type in all cases: in vivo, maize
ZEAMA Abraxas = assay: Tank-mix post-emergence crop damage, greenhouse, visual assessment; parameters: key to Reduction [Difference]: % injury reduction: damage without minus with safener (0–100% scale); conditions: for HER effect + SAF / Reduction [%] / Reduction [Difference]: Final; for HER effect: no safener, Final assessment
Protocol: (§1) Seeds of crops (spring wheat, TRZAS; spring barley, HORVS; maize, ZEAMA) were placed in sandy loam soil in peat pots, covered with soil and cultivated in a greenhouse under good growth conditions. Two to three weeks after sowing, the test plants were treated at the 1 to 3-leaf stage. The herbicide/safener active compound combinations according to the invention, formulated as wettable powders or emulsion concentrates, and, in parallel tests, the correspondingly formulated individual active compounds were sprayed onto the green parts of the plants in various dosages using an amount of water of 300 l/ha (converted).
(§2) The pots were returned under good growing conditions in a glasshouse and a visual assessment of herbicidal effects was made at intervals from 1 to 3 weeks after herbicide application (DAT=days after treatment). Assessment was on a percentage basis in comparison with untreated control plants (0%=no injury, 100%=complete kill).
(§3) Reduction[Difference]=herbicide damage without safener−herbicide damage with safener Reduction[%]=(Reduction[Difference]*100)/herbicide damage without safener
b) Plant Species, Variety: ZEAMA Abraxas, Safener (SAF): Isoxadifen-Ethyl

ZEAMA Sileno [1] = assay: as above; parameters: key to Reduction [Difference]: % points: herbicide damage without safener − damage with safener; conditions: for HER effect + SAF / Reduction [%] / Reduction [Difference]: Final; for HER effect: no safener, Final assessment
Protocol: as §1, §2, §3
a) Plant Species, Variety: ZEAMA Sileno, Safener (SAF): Isoxadifen-Ethyl

ZEAMA Sileno [2] = assay: Safener seed treatment, pre-emergence herbicide, crop damage; parameters: key to Reduction [Difference]: % crop damage without safener minus % damage with safener; conditions: for Reduction [%] / Reduction [Difference]: isoxadifen-ethyl 0.25 g a.i./kg seed; for HER effect + SAF: isoxadifen-ethyl seed treatment 0.25 g a.i./kg seed; for HER effect: no safener
Protocol: For the safener seed treatment, sufficient seeds of the respective crops (spring wheat, TRZAS; spring barley, HORVS; maize, ZEAMA) were weighed into screw top glass bottles approximately twice the volume of the seeds.
The specified safeners, formulated as wettable powder (WP) were weighed out so that the specified rates (g a.i./kg seed) would be obtained, dissolved in water (1 ml water per 10 g of seeds), and added to the seeds to produce a slurry.
The bottles were capped and then placed in an overhead shaker (set at medium speed for ca. 60 minutes) so that the seeds were evenly coated with the slurry. The bottles were uncapped and the seeds were either placed on paper and dried for an interval of 3-4 hours prior to sowing, or directly sown. Seeds were placed in sandy loam soil in pots of a diameter of 7-8 cm, and covered with soil.
Pre-emergence application of the specified herbicides was done subsequently, on two sets of plants: a) seed treatment with safener, as described above
The herbicides were formulated as WP and was sprayed onto the soil surface as an aqueous suspension at an equivalent water application rate of 300 l/ha.
After application, the test plants were kept in the greenhouse under good growth conditions. At intervals up to 4 weeks after application (=28 days after treatment; DAT), % crop damage observed on the treated plants was scored visually in comparison to control plants that had not received any safener or herbicide treatment.
Values in the table below are mean values of at least 2 replicates.
Reduction[Difference]=herbicide damage without safener−herbicide damage with safener Reduction[%]=(Reduction[Difference]*100)/herbicide damage without safener […]
c) Plant Species, Variety: ZEAMA Sileno, Safener (SAF): Isoxadifen-Ethyl

[3] = HER 8 g a.i./ha + isoxadifen-ethyl 50 g a.i./ha
[4] = HER 8 g a.i./ha, isoxadifen-ethyl 50 g a.i./ha
[5] = HER 32 g a.i./ha + isoxadifen-ethyl 100 g a.i./ha
[6] = HER 32 g a.i./ha, isoxadifen-ethyl 100 g a.i./ha
[7] = HER 2 g a.i./ha, isoxadifen-ethyl 100 g a.i./ha
[8] = HER 40 g a.i./ha pre-emergence, 14 DAT
[9] = HER 40 g a.i./ha pre-emergence, 26 DAT
[10] = HER 2 g a.i./ha, isoxadifen-ethyl 50 g a.i./ha
[11] = HER 80 g a.i./ha pre-emergence, 14 DAT
[12] = HER 80 g a.i./ha pre-emergence, 26 DAT

C=CC1(C(=O)NC2C=CC(C(=O)O)C2)CC(c2cc(F)cc(F)c2)=NO1 (stereo not drawn) [Example 1.58]
HER effect + SAF (ZEAMA Abraxas; [3]): 17% | Reduction [%] (ZEAMA Abraxas; [4]): 73% | Reduction [Difference] (ZEAMA Abraxas; [4]): 45 | HER effect (ZEAMA Abraxas; HER 8 g a.i./ha): 62% | HER effect + SAF (ZEAMA Abraxas; [5]): 15% | Reduction [%] (ZEAMA Abraxas; [6]): 84% | Reduction [Difference] (ZEAMA Abraxas; [6]): 80 | HER effect (ZEAMA Abraxas; HER 32 g a.i./ha): 95%

C=CC1(C(=O)NC2C=C(C(=O)OCCOC)OC2)CC(c2cc(C)cc(F)c2)=NO1 (stereo not drawn) [Example 1.89]
HER effect + SAF (ZEAMA Abraxas; [3]): 3% | Reduction [%] (ZEAMA Abraxas; [4]): 90% | Reduction [Difference] (ZEAMA Abraxas; [4]): 27 | HER effect (ZEAMA Abraxas; HER 8 g a.i./ha): 30% | HER effect + SAF (ZEAMA Abraxas; [5]): 17% | Reduction [%] (ZEAMA Abraxas; [6]): 62% | Reduction [Difference] (ZEAMA Abraxas; [6]): 28 | HER effect (ZEAMA Abraxas; HER 32 g a.i./ha): 45%

C=CC1(C(=O)NC2COC(C(=O)OCc3ccc(OC)cc3)C2)CC(c2cc(C)cc(F)c2)=NO1 (mixture of isomers) [Example 1.86]
HER effect + SAF (ZEAMA Abraxas; [3]): 12% | Reduction [%] (ZEAMA Abraxas; [4]): 63% | Reduction [Difference] (ZEAMA Abraxas; [4]): 20 | HER effect (ZEAMA Abraxas; HER 8 g a.i./ha): 32%

C=CC1(C(=O)NC2C=C(C(=O)OC)OC2)CC(c2cc(C)cc(C)c2)=NO1 (stereo not drawn) [Example 1.90]
HER effect + SAF (ZEAMA Abraxas; HER 2 g a.i./ha + isoxadifen-ethyl 100 g a.i./ha): 5% | Reduction [%] (ZEAMA Abraxas; [7]): 80% | Reduction [Difference] (ZEAMA Abraxas; [7]): 20 | HER effect (ZEAMA Abraxas; HER 2 g a.i./ha): 25%

COC(=O)C1C=CC(NC(=O)C2(C(F)(F)F)CC(c3cc(C)cc(F)c3)=NO2)C1 (mixture of isomers) [Example 1.22]
HER effect + SAF (ZEAMA Abraxas; [5]): 0% | Reduction [%] (ZEAMA Abraxas; [6]): 100% | Reduction [Difference] (ZEAMA Abraxas; [6]): 20 | HER effect (ZEAMA Abraxas; HER 32 g a.i./ha): 20%

CC1(C(=O)NC2C=CC(C(=O)OCCCl)C2)CC(c2cc(F)cc(F)c2)=NO1 (mixture of isomers) [Example 1.47]
HER effect + SAF (ZEAMA Abraxas; [5]): 38% | Reduction [%] (ZEAMA Abraxas; [6]): 39% | Reduction [Difference] (ZEAMA Abraxas; [6]): 24 | HER effect (ZEAMA Abraxas; HER 32 g a.i./ha): 62%

COC(=O)C1OCCC1NC(=O)C1(C)CC(c2cc(F)cc(F)c2)=NO1 (stereo not drawn) [Example 1.92]
HER effect + SAF (ZEAMA Sileno [1]; [3]): 42% | Reduction [%] (ZEAMA Sileno [1]; [4]): 56% | Reduction [Difference] (ZEAMA Sileno [1]; [4]): 53 | HER effect (ZEAMA Sileno [1]; HER 8 g a.i./ha): 95% | HER effect + SAF (ZEAMA Sileno [1]; [5]): 38% | Reduction [%] (ZEAMA Sileno [1]; [6]): 61% | Reduction [Difference] (ZEAMA Sileno [1]; [6]): 59 | HER effect (ZEAMA Sileno [1]; HER 32 g a.i./ha): 97% | Reduction [%] (ZEAMA Sileno [2]; [8]): 93% | Reduction [Difference] (ZEAMA Sileno [2]; [8]): 70 | Reduction [%] (ZEAMA Sileno [2]; [9]): 86% | Reduction [Difference] (ZEAMA Sileno [2]; [9]): 60 | HER effect + SAF (ZEAMA Sileno [2]; [8]): 5% | HER effect + SAF (ZEAMA Sileno [2]; [9]): 10% | HER effect (ZEAMA Sileno [2]; [8]): 75% | HER effect (ZEAMA Sileno [2]; [9]): 70%

CC1(C(=O)NC2COC(C(=O)OCc3cccc(F)c3)C2)CC(c2cc(F)cc(F)c2)=NO1 (mixture of isomers) [Example 1.76]
HER effect + SAF (ZEAMA Abraxas; [3]): 33% | Reduction [%] (ZEAMA Abraxas; [4]): 63% | Reduction [Difference] (ZEAMA Abraxas; [4]): 57 | HER effect (ZEAMA Abraxas; HER 8 g a.i./ha): 90%

COCCOC(=O)C1C=CC(NC(=O)C2(CCl)CC(c3cc(F)cc(F)c3)=NO2)C1 (stereo not drawn) [Example 1.1]
HER effect + SAF (ZEAMA Abraxas; [3]): 20% | Reduction [%] (ZEAMA Abraxas; [4]): 78% | Reduction [Difference] (ZEAMA Abraxas; [4]): 73 | HER effect (ZEAMA Abraxas; HER 8 g a.i./ha): 93% | HER effect + SAF (ZEAMA Abraxas; [5]): 45% | Reduction [%] (ZEAMA Abraxas; [6]): 53% | Reduction [Difference] (ZEAMA Abraxas; [6]): 50 | HER effect (ZEAMA Abraxas; HER 32 g a.i./ha): 95%

C=CC1(C(=O)NC2CC=C(C(=O)OC)C2)CC(c2cc(F)cc(F)c2)=NO1 (mixture of isomers) [Example 1.60]
HER effect + SAF (ZEAMA Abraxas; [3]): 20% | Reduction [%] (ZEAMA Abraxas; [4]): 64% | Reduction [Difference] (ZEAMA Abraxas; [4]): 35 | HER effect (ZEAMA Abraxas; HER 8 g a.i./ha): 55% | HER effect + SAF (ZEAMA Abraxas; [5]): 57% | Reduction [%] (ZEAMA Abraxas; [6]): 39% | Reduction [Difference] (ZEAMA Abraxas; [6]): 37 | HER effect (ZEAMA Abraxas; HER 32 g a.i./ha): 94%

C=CC1(C(=O)NC2COC(C(=O)OC)C2)CC(c2cc(F)cc(F)c2)=NO1 (stereo not drawn) [Example 1.70]
HER effect + SAF (ZEAMA Sileno [1]; HER 2 g a.i./ha + isoxadifen-ethyl 50 g a.i./ha): 35% | Reduction [%] (ZEAMA Sileno [1]; [10]): 60% | Reduction [Difference] (ZEAMA Sileno [1]; [10]): 53 | HER effect (ZEAMA Sileno [1]; HER 2 g a.i./ha, 0%=no injury, 100%=complete kill): 88% | Reduction [%] (ZEAMA Sileno [2]; [8]): 44% | Reduction [Difference] (ZEAMA Sileno [2]; [8]): 35 | Reduction [%] (ZEAMA Sileno [2]; [9]): 53% | Reduction [Difference] (ZEAMA Sileno [2]; [9]): 45 | HER effect + SAF (ZEAMA Sileno [2]; [8]): 45% | HER effect + SAF (ZEAMA Sileno [2]; [9]): 40% | HER effect (ZEAMA Sileno [2]; [8]): 80% | HER effect (ZEAMA Sileno [2]; [9]): 85% | Reduction [%] (ZEAMA Sileno [2]; [11]): 26% | Reduction [Difference] (ZEAMA Sileno [2]; [11]): 25 | Reduction [%] (ZEAMA Sileno [2]; [12]): 21% | Reduction [Difference] (ZEAMA Sileno [2]; [12]): 20 | HER effect + SAF (ZEAMA Sileno [2]; [11]): 70% | HER effect + SAF (ZEAMA Sileno [2]; [12]): 75% | HER effect (ZEAMA Sileno [2]; [11]): 95% | HER effect (ZEAMA Sileno [2]; [12]): 95%

CN(C)C(=O)SCCOC(=O)C1C=CC(NC(=O)C2(C)CC(c3cc(F)cc(F)c3)=NO2)C1 (stereo not drawn) [Example 1.29]
HER effect + SAF (ZEAMA Sileno [1]; [3]): 25% | Reduction [%] (ZEAMA Sileno [1]; [4]): 58% | Reduction [Difference] (ZEAMA Sileno [1]; [4]): 35 | HER effect (ZEAMA Sileno [1]; HER 8 g a.i./ha): 60% | HER effect + SAF (ZEAMA Sileno [1]; [5]): 25% | Reduction [%] (ZEAMA Sileno [1]; [6]): 67% | Reduction [Difference] (ZEAMA Sileno [1]; [6]): 50 | HER effect (ZEAMA Sileno [1]; HER 32 g a.i./ha): 75% | Reduction [%] (ZEAMA Sileno [2]; [11]): 33% | Reduction [Difference] (ZEAMA Sileno [2]; [11]): 20 | HER effect + SAF (ZEAMA Sileno [2]; [11]): 40% | HER effect (ZEAMA Sileno [2]; [11]): 60%

C=CC1(C(=O)NC2COC(C(=O)OC)C2)CC(c2cc(C)cc(F)c2)=NO1 (mixture of isomers) [Example 1.71]
HER effect + SAF (ZEAMA Abraxas; [3]): 17% | Reduction [%] (ZEAMA Abraxas; [4]): 71% | Reduction [Difference] (ZEAMA Abraxas; [4]): 41 | HER effect (ZEAMA Abraxas; HER 8 g a.i./ha): 58% | HER effect + SAF (ZEAMA Abraxas; [5]): 35% | Reduction [%] (ZEAMA Abraxas; [6]): 62% | Reduction [Difference] (ZEAMA Abraxas; [6]): 56 | HER effect (ZEAMA Abraxas; HER 32 g a.i./ha): 91%

Source: patent publication US20230217926A1, “SELECTIVE HERBICIDES BASED ON SUBSTITUTED ISOXAZOLIN CARBOXAMIDES AND ISOXADIFEN-ETHYL” (BAYER AKTIENGESELLSCHAFT, priority 2020, published 2023)
